The source of these data is patent publication US20080153839A1, “USE OF ANISIC ACID FOR PROMOTING DESQUAMATION” (L'OREAL, priority 2006, published 2008).

This test concerns stratum corneum of normal human skin fragments kept in survival. The experiment in a line: Cohesion of the stratum corneum on skin kept in survival, histological slices stained with hemalun-eosin. Conditions: for % increase in desquamation relative to the control skin / Scores (histological evaluation of the cohesion of the horny layer, semi-quantitative scores): topical; for Scores (histological evaluation of the cohesion of the horny layer, semi-quantitative scores): average of 6 donors, score 0-4, the higher the score the lower the cohesion. Type of test: cell-based. As to the method: Fragments of normal human skin are obtained by plastic surgery from 6 different donors. They are placed in inserts, which are themselves positioned on culture wells containing culture medium specifically adapted for maintaining the skin fragments in survival (antibiotics, FCS). The anisic acid is applied topically according to the following protocol and in comparison with an untreated skin (control skin): • control skin • skin+[…] • skin+[…] The cohesion of the horny layer was evaluated using stained histological slices, according to the following semi-quantitative scores (evaluation on 10 to 15 fields at magnification 40): • score 0 absence of change of cohesion of the stratum corneum • score 1 slight reduction in cohesion of the stratum corneum • score 2 moderate reduction in cohesion of the stratum corneum • score 3 large reduction in cohesion of the stratum corneum • score 4 very large reduction in cohesion of the stratum corneum with exfoliation. An average is determined for each parameter from the results obtained on the 6 skin models. The statistical analysis is performed by means of the “reduced deviation” Student test or the paired samples test, with a risk of 5%.

The mark [1] stands for this setting: 0.1% anisic acid, listed as anisic acid.
The mark [2] stands for this setting: 1% anisic acid, listed as anisic acid.

On to `COc1ccc(C(=O)O)cc1` [Anisic acid, 4-methoxybenzoic acid], for which, for the setting “0.1% and 1%, histological reduction in the cohesion of the stratum corneum, no dose effect”, the “desquamating activity after topical application relative to the control skins” value is given as “significant desquamating activity”. Also, the “% increase in desquamation relative to the control skin” value reads like this: (0.1% anisic acid) 95.9%; under setting [1], 95.9%; (1% anisic acid) 115%; under setting [2], 115%. The “Scores (histological evaluation of the cohesion of the horny layer, semi-quantitative scores)” value reads like this: (0.1% anisic acid) 1.43 ± 0.7; under setting [1], 1.43; (1% anisic acid) 1.57 ± 0.4; under setting [2], 1.57.
